22 sequences from patent US9187539B2, “Compositions having antiangiogenic activity and uses thereof” (The Johns Hopkins University, priority 2005, dated 2015) can be followed below.

Assay [1] relates to human umbilical vein endothelial cells (HUVECs). The assay is described as follows: HUVEC proliferation assay (WST-1), 3-day, 2,000 cells per well. Format: cell-based. The following applies: 3-day assay; for anti-proliferative activity in words: overall; for anti-proliferative activity (maximum or stated level), scaled so that TNP-470 = 100%: 0.01-30 μg/ml; for anti-proliferative activity in words at high peptide concentration: high/highest applied concentration (30 μg/ml where stated). On the procedure:
In addition to the 2 and 4 day proliferation experiment where 5,000 cells per well were seeded, the effects of the peptides on the proliferating ability of HUVECs were also studied using cells seeded at a density of 2,000 cells per well. This lower cell seeding density allowed the experiment to be extend for an additional day without changing the cell medium. The effects of the peptides when applied to the cells for 3 consecutive days is also reported herein. The proliferation assay again involved two steps. During the first step 2,000 cells per well for a 96-well plate were seeded without any extracellular matrix substrate on the wells overnight (8 hours). The initial cell culture medium was removed using a multichannel pipetor. To synchronize the cells, the cells were serum starved for 4 hours and the candidate peptides were applied. During serum starvation the cell culture medium was changed from a “full” medium to the “basal” medium, which contained no growth factors or serum. Serum starvation for 4 hours had no effect on the proliferation of the cells. For this assay, the logarithmic scale of four different concentrations of 0.01 μg/ml, 0.1 μg/ml, 1 μg/ml and 10 μg/ml of peptide was used. In addition, a larger concentration of 30 μg/ml peptide was also applied. Each of the concentrations was again tested in quadruplicate. After the third day of peptide application the WST-1 dye was applied for approximately 2 to 4 hours (usually after 3 hours the color saturates). The proliferation was later tested on the ELISA plate reader as described for the 2 and 4 day assay. Note that the 2- and 4-day and the 3-day protocols differed in that 5,000 cells/well versus 2,000 cells/well seeded, respectively.
(In general: Tetrazolium assays rely on reduction of a dye to a coloured formazan, in cell work by metabolically active cells.)

The test system is the same in assay [2]. In words: HUVEC proliferation assay (WST-1), 2- and 4-day, 5,000 cells per well. The following applies: for concentration-response profile in words: 2- and/or 4-day assay. Format: cell-based. The method, then: The effect of the various peptides on cell proliferation was assayed, by administering the peptides to human umbilical vein endothelial cells (HUVECs) in culture. 45 peptides belonging to four distinct families of proteins including the thrombospondin-1 containing proteins, the C-X-C chemokines, collagen derived peptides and peptides from tissue inhibitors of metalloproteinases were tested. The potency of each of the peptides was tested using the proliferation assay at 2 days and 4 days following administration of the peptides and a similar assay using a different cell density at 3 days. In the four-day experiments, the cell medium was changed after the second day of incubation and the peptide was replaced at the initial concentration together with the medium. TNP-470 is an antiangiogenic compound that was used as a positive control for assessing anti-angiogenic efficacy. The activity of each polypeptide was, therefore, expressed as a percentage of TNP-470 activity, i.e., the optical density obtained experimentally is scaled such that the negative control is 0% and the positive control is 100% as explained below (FIG. 4). Each plate included a well having HUVEC cells that received 0.1 μg/ml TNP-470. For example, a peptide having the same effect on endothelial cell proliferation would have 100% of the activity of TNP-470. Note that activity could exceed 100%. In this assay, the effects of the predicted anti-angiogenic fragments on the ability of HUVECs to proliferate was characterized. […] A commonly used methodology to test for proliferation is to monitor the viability and metabolic activity of endothelial cells, in the presence of the anti-angiogenic fragments at different concentrations and various time steps. The cell proliferation reagent WST-1 was used as a substrate/assay to measure the metabolic activity of viable cells. WST-1 is a colorimetric, non-radioactive assay and can be performed in a microplate. It is suitable for measuring cell proliferation, cell viability or cytotoxicity. The assay is based on the reduction a red tetrazolium salt, WST-1, by viable, metabolically active, cells to form the yellow formazan crystals soluble in the cell medium. […] The cells are cultured described above. Once cells have reached 80% confluence they are trypsinized and resuspended in EGM-2. The cell density is estimated using a hemocytometer. All of the endothelial cells used were from passage 4 to passage 8. The proliferation assay involved two steps. During the first step the cells, approximately 5,000 cells per well for a 96-well plate, were seeded without any extracellular matrix substrate on the wells overnight (8 hours). The initial cell culture medium was removed using a multichannel pipetor and the candidate peptides were applied. A logarithmic scale of four different concentrations of 0.01 μg/ml, 0.1 μg/ml, 1 μg/ml and 10 μg/ml of each peptide was used. Each of the concentrations was tested in quadruplicate. The viability of the cells was challenged at 2 and 4 days upon the application of the peptide. As a positive control for decreased viability, 0.1 μg/ml of TNP-470 (O-(chloro-acetyl-carbamoyl) fumagillol, a synthetic analogue of fumagillin; TNP-470 was provided by NCI, was provided along with the medium, and as a negative control for normal viability, the cells were cultured without the addition of any agent. The cells were then incubated with 10 μl per well of the red WST-1 reagent for approximately 2 to 4 hours. During this incubation period, viable cells converted, in their mitochondria, the red WST-1 to the yellow formazan crystals which dissolve in the medium. The second step of the assay involved the quantification of the changes in proliferation which was performed by measuring the change in color after lysing the cells. The samples were read using the ELISA plate reader Victor3 V (Perkin Elmer) at a wavelength of […]. The amount of color produced is directly proportional to the number of viable cells. […]

The mark [3] stands for this setting: 4 days of peptide application, 0.01-10 μg/ml.
[4] abbreviates: 10 μg/ml peptide, 2- and 4-day assay.
Where [5] appears, read: 2- and 4-day assay, day not specified or constant throughout the four days.
Where [6] appears, read: 2 days of peptide application, 0.01-10 μg/ml.
Where [7] appears, read: 2- and 4-day assay, day not specified.

Entries after “also recorded” stand apart in the source; their conditions may differ.

As to “AAPFLECQGRQGTCHFFAN [SEQ ID NO: 87, α4CIV CAA56943.1: 1628-1646]”, in assay [1], the “concentration-response profile in words” value is given as “activity increased with increasing the applied peptide concentration” and the “anti-proliferative activity in words” value is on record as “similar”. For the same sequence, the “anti-proliferative activity in words” value in assay [2] (2 days of peptide application) is on record as “intermediate activity”.

For the sequence “ASWSACSVSCGGGARQRTR [SEQ ID NO: 45, Fibulin-6 CAC37630.1: 1745-1763]”, the “concentration-response profile in words” value is reported as “biphasic response” in assay [1] and “biphasic activity” in assay [2]. Moreover, the “peptide concentration at which maximum activity was observed” value in assay [1] and in assay [2] (2 days) was 0.1 µg/mL in each case. The “anti-proliferative activity (maximum or stated level), scaled so that TNP-470 = 100%” value is 20% in assay [1] and “approximately 30%” in assay [2] (setting [3]).

On to “DGRELCLDPKENWVQRVVEKFLK [SEQ ID NO: 110, IL-8/CXCL8 AAP35730.1: 72-94]”, for which the “anti-proliferative activity in words at high peptide concentration” value in assay [1] is recorded as “higher”. Besides, the “anti-proliferative activity, TNP-470 = 100%” value in assay [2] (setting [4]) stood at 20%.

For the sequence “DGRKICLDPDAPRIKKIVQKKL [SEQ ID NO: 114, THBG-β/CXCL7 AAB46877.1: 100-121]”, the “anti-proliferative activity, TNP-470 = 100%” value in assay [2] (setting [4]) was determined as 15%.

Take “ECLWTDMLSNFGYPGYQSKHYACI [SEQ ID NO: 155, TIMP 3 AAA21815.1: 148-171]”: the “anti-proliferative activity (maximum or stated level), scaled so that TNP-470 = 100%” value in assay [2] (setting [5]) and in assay [2] (setting [6]) was 30% in each case.

Regarding “GPWAPCSASCGGGSQSRS [SEQ ID NO: 48, Papilin NP_775733.2: 342-359]”, in assay [2] (setting [5]), the “anti-proliferative activity (maximum or stated level), scaled so that TNP-470 = 100%” value was found to be 30%.

For “GPWEDCSVSCGGGEQLRSR [SEQ ID NO: 63, SCO-spondin XP_379967.2: 3781-3799]”, the “anti-proliferative activity (maximum or stated level), scaled so that TNP-470 = 100%” value is given as 25% in assay [1] and around 15% in assay [2] (setting [5]). In assay [2] (2- and 4-day assay, overall), the “anti-proliferative activity in words” value is listed as “low anti-proliferative activity”.

On to “GPWEPCSVTCSKGTRTRRR [SEQ ID NO: 49, Properdin AAP43692.1: 143-161]”, for which the “anti-proliferative activity in words at high peptide concentration” value in assay [1] is “significantly increased”. In assay [2] (setting [7]), the “peptide concentration at which maximum activity was observed” value came to 0.01 µg/mL. The “anti-proliferative activity (maximum or stated level), scaled so that TNP-470 = 100%” value in assay [2] (setting [5]) came out at 30%; in assay [2] (setting [3]), 20%. Moreover, the “concentration-response profile in words” value in assay [2] is “biphasic response”.

For the sequence “GPWERCTAQCGGGIQARRR [SEQ ID NO: 60, Semaphorin 5A NP_003957.1: 660-678]”, the “anti-proliferative activity (maximum or stated level), scaled so that TNP-470 = 100%” value in assay [1] was determined as 35%; in assay [2] (setting [5]), 25%. In assay [2] (setting [7]), the “peptide concentration at which maximum activity was observed” value is given as “higher than 1 μg/ml”. The “anti-proliferative activity in words” value was “minimum anti-proliferative activity” in assay [2] (2 days of peptide application) and “intermediate activity” in assay [2] (4 days of peptide application).

Take “GPWGDCSRTCGGGVQFSSR [SEQ ID NO: 7, ADAMTS-4 CAH72146.1: 527-545]”: the “peptide concentration at which maximum activity was observed” value in assay [2] (4 days) was determined as 10 µg/mL. In assay [2] (setting [3]), the “anti-proliferative activity (maximum or stated level), scaled so that TNP-470 = 100%” value is reported as 35%.

Turning to “GPWGECSRTCGGGVQFSHR [SEQ ID NO: 14, ADAMTS-8 Q9UP79: 534-552]”, the “concentration-response profile in words” value in assay [1] and in assay [2] was “biphasic response” throughout. Moreover, the “anti-proliferative activity in words at 10 μg/ml” value in assay [2] (setting [4]) is “reduced”. The “peptide concentration at which maximum activity was observed” value in assay [2] (2 days) and in assay [2] (4 days) was 1 µg/mL in each case. Moreover, the “anti-proliferative activity (maximum or stated level), scaled so that TNP-470 = 100%” value in assay [2] (setting [6]) is recorded as 35%; in assay [2] (setting [3]), 30%.

Consider “KCHGHGVCNSNKN [SEQ ID NO: 1, ADAM-9 Q13443: 649-661]”, for which the “anti-proliferative activity (maximum or stated level), scaled so that TNP-470 = 100%” value in assay [2] (setting [5]) is reported as around 20%.

In the case of “LCMTKSDCYQPAWYIHEGFYNLSG [SEQ ID NO: 159, reference compound]”, the “anti-proliferative activity in words” value in assay [2] (2- and 4-day assay, overall) was “not statistically significant”.

With “LRRFSTMPFMFCNINNVCNF [SEQ ID NO: 89, α5CIV AAC27816.1: 1510-1529]”, in assay [1], the “anti-proliferative activity in words at high peptide concentration” value is given as “increased even more” and the “anti-proliferative activity in words” value is “reproducible”. In assay [2] (setting [4]), the “anti-proliferative activity, TNP-470 = 100%” value turned out to be 80%.

Consider “MQCHGRGVCNNRKN [SEQ ID NO: 2, ADAM-12 O43184: 662-675]”, for which the “concentration-response profile in words” value in assay [1] is reported as “activity increasing as the peptide concentration increased”. Further, the “anti-proliferative activity in words” value in assay [2] (2 days of peptide application) is “showed activity”.

For the sequence “NGKEICLDPEAPFLKKVIQKILD [SEQ ID NO: 95, ENA-78/CXCL5 AAP35453.1: 86-108]”, in assay [1], the “anti-proliferative activity in words at high peptide concentration” value was “high activity” and the “anti-proliferative activity in words” value is on record as “reproducible over all tested concentrations”. Besides, the “anti-proliferative activity, TNP-470 = 100%” value in assay [2] (0.01 μg/ml peptide, 2 days) is “approximately 30%”.

For the sequence “NGKKACLNPASPMVQKIIEKIL [SEQ ID NO: 106, GRO-γ/MIP-2β/CXCL3 AAA63184.1: 79-100]”, the “peptide concentration at which maximum activity was observed” value in assay [1] and in assay [2] (setting [7]) was 0.01 µg/mL throughout. Moreover, in assay [2] (setting [3]), the “anti-proliferative activity (maximum or stated level), scaled so that TNP-470 = 100%” value amounted to 15%.

“NGKQVCLDPEAPFLKKVIQKILDS [SEQ ID NO: 98, GCP-2/CXCL6 AAH13744.1: 86-109]”: in assay [1], the “concentration-response profile in words” value is “biphasic behavior” and the “anti-proliferative activity in words at high peptide concentration” value is “increased”. Also, the “anti-proliferative activity, TNP-470 = 100%” value in assay [2] (0.01 μg/ml peptide, 2 days) is on record as 30%. In assay [2] (setting [4]), the “anti-proliferative activity in words at 10 μg/ml” value is reported as “Virtually no anti-proliferative activity”. Besides, in assay [2] (setting [5]), the “anti-proliferative activity (maximum or stated level), scaled so that TNP-470 = 100%” value is listed as 35%. Also, the “concentration-response profile in words” value in assay [2] is “biphasic behavior; also recorded: biphasic response”.

On to “QDVFNKDGKVILLSPQAICLPKEK [SEQ ID NO: 158, reference compound]”, for which, in assay [2] (2- and 4-day assay, overall), the “anti-proliferative activity in words” value is on record as “not statistically significant”.

In the case of “SPWTKCSATCGGGHYMRTR [SEQ ID NO: 61, Semaphorin 5A NP_003957.1: 848-866]”, the “anti-proliferative activity in words” value in assay [2] (2- and 4-day assay, overall) was “no anti-proliferative activity”.

Consider “SQWSPCSRTCGGGVSFRER [SEQ ID NO: 47, Papilin NP_775733.2: 33-51]”, for which the “anti-proliferative activity in words” value in assay [2] (2- and 4-day assay, overall) is on record as “minimal anti-proliferative activity”.

Take “TSWSPCSASCGGGHYQRTR [SEQ ID NO: 62, Semaphorin 5B AAQ88491.1: 916-934]”: the “anti-proliferative activity (maximum or stated level), scaled so that TNP-470 = 100%” value in assay [2] (setting [5]) came to 10%.
